Data from patent US10287267B2, “Isoquinolin-3-yl carboxamides and preparation and use thereof” (Samumed, LLC, priority 2016, dated 2019).
Like-named read-outs stand apart in the source and are kept apart here.

Tests used:
[1] = system: Tau phosphorylation at Ser396 (pSer396); experiment: Tau phosphorylation assay (pSer396 ELISA / western blot) in SH-SY5Y cells; assay type: cell-based, human; conditions: Homo sapiens, read-out: pSer396 Tau EC50;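 further: EC50 for reduction of Tau pSer396 in lysed cells, measured by colorimetric ELISA or chemiluminescent western blot, both using the same pSer396 antibody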
Experimental: Two days before treatment, cells were seeded onto 96 well plates at 5×10^4 cells/well.
Wells were visually checked for cell death or change in morphology and supernatants were tested for cytotoxicity by measurement of lactate dehydrogenase release (LDH, CytoToxOne kit, Promega) if necessary.
Cells were lysed with RIPA buffer complemented with phosphatase and protease inhibitors then lysates were spun down at 12,000 g for 10 min to remove any cellular debris. Lysates are then either directly tested for pSer396 by ELISA (Life Technology, Kit KHB7031) or loaded on NuPage Bis-Tris gels for western blot analysis. Colorimetric detection of ELISA signal is performed by Cytation3 plate reader (Biotek) and the chemiluminescence signal for HRP-linked antibodies used in western blotting is detected using a Carestream Image Station. The same pSer396 antibody is used for detection of pTau in both assays.

[2] = target: recombinant DYRK1A kinase (Homo sapiens (Human), UniProt Q13627); experiment: DYRK1A kinase assay (Ser/Thr 18 peptide Z-lyte FRET); assay type: biochemical; conditions: 30 μM ATP, 1 h room temperature;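 further: Read-out is the coumarin to fluorescein emission ratio, referenced to unphosphorylated (0%) and phosphorylated (100%) Ser/Thr 18 peptide controls, values from dose-response curves by non-linear regression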
[3] = system: SW480 colon carcinoma cells; experiment: Cell viability assay (CellTiter-Glo); assay type: cell-based, human; conditions: Homo sapiens; for EC50: 96 h, SW480 cells, CellTiter-Glo, four days incubation; for inhibition at 10 µM: SW480, read-out: percent inhibition at 10 μM
IL-6 = IL-6 inhibition in LPS-stimulated human peripheral blood mononuclear cells (HTRF); assay type: cell-based; conditions: Homo sapiens, PBMC; for EC50: Table 9, huPBMCs, LPS 50 ng/mL, 22 hours, dose-response starting from 10 μM; for inhibition at 10 µM: read-out: percent value in parentheses beside EC50 >10 μM;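 on all read-outs here: IL-6 detected by HTRF with an XL665- and Cryptate-labelled anti-IL-6 antibody pair, samples run in duplicate, EC50 obtained from a four-parameter Levenberg-Marquardt curve fit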
Experimental: After 22 hour incubation, a mixture of anti-IL6 XL665 and anti-IL-6 Cryptate diluted in reconstitution buffer (Catalog #62IL6PEC, Cisbio Inc., Bedford, Mass.) was added to each well. […] All samples were processed in duplicate. […] EC50 was determined using software generated by Dotmatics Limited (Windhill Bishops Stortford Herts, UK) using the Levenberg-Marquardt 4 parameter fitting procedure with finite different gradients.

[4] = system: α-smooth muscle actin (αSMA) positive LL29 cells; experiment: Inhibition of fibrotic process: αSMA in TGF-β1 treated primary human fibroblasts from IPF patients; assay type: cell-based; conditions: Homo sapiens, Fibroblast; for EC50: 96 h, Table 8, LL29 fibroblasts from IPF patients, TGF-β1 20 ng/mL, 4 days, dose-response 10 μM to 0.94 nM; for inhibition at 10 µM: read-out: percent value in parentheses beside EC50 >10 μM;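 on all read-outs here: controls were TGF-β1 stimulated wells with DMSO vehicle (positive) and cells given DMSO alone (negative), cultured in F12 medium with 1% fetal bovine serum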
[5] = system: Wnt pathway (Sp5-Luc reporter, TCF/LEF binding sites) in SW480 colon carcinoma cells; experiment: Screening assay for Wnt activity: Sp5-Luc reporter gene assay; assay type: cell-based, human; conditions: Homo sapiens; for EC50: Sp5-Luc reporter, SW480 cells, 36 to 48 hours; for inhibition at 10 µM: SW480, read-out: percent inhibition at 10 μM;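 on all read-outs here: firefly luciferase luminescence read in stably transduced SW480 cells carrying the Sp5 promoter reporter with eight TCF/LEF sites, compounds given in 0.1% DMSO final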
Experimental: The screening assay for Wnt activity is described as follows.
Following incubation, 15 μl of BriteLite Plus luminescence reagent (Perkin Elmer) was added to each well of the 384-well assay plates. The plates were placed on an orbital shaker for 2 min and then luminescence was quantified using the Envision (Perkin Elmer) plate reader.

recombinant GSK3β kinase = recombinant GSK3β kinase (Homo sapiens (Human), UniProt P49841); experiment: GSK3β kinase assay (Ser/Thr 09 peptide Z-lyte FRET); assay type: biochemical; conditions: 46 μM ATP, 1 h room temperature;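 further: kinase activity read as coumarin to fluorescein emission ratio, 11-point threefold dilutions from 10 µM to 0.0003 µM in duplicate, unphosphorylated and phosphorylated peptide as 0% and 100% controls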
[6] = SH-SY5Y cells, overnight (16-18 h) exposure

Sequence of recombinant GSK3β kinase (P49841 whole entry): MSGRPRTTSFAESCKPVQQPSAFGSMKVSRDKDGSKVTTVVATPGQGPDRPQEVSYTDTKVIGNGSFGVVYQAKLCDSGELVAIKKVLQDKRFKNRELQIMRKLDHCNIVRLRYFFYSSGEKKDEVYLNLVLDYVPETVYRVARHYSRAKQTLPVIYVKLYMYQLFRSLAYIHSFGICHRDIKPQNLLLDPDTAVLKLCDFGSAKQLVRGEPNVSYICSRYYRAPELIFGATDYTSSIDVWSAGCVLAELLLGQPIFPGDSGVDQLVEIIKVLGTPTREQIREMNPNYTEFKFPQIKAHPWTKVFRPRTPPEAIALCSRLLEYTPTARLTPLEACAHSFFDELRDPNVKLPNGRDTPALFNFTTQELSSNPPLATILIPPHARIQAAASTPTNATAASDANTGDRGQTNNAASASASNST

Row | Structure (SMILES) | EC50 ([1]; SH-SY5Y) [nM] | EC50 [2] [nM] | EC50 [3] [nM] | EC50 (IL-6) [nM] | EC50 [4] [nM] | EC50 [5] [nM] | EC50 (recombinant GSK3β kinase) [nM] | EC50 [1, 6] [nM] | inhibition at 10 µM [3] [%] | inhibition at 10 µM (IL-6) [%] | inhibition at 10 µM [4] [%] | inhibition at 10 µM [5] [%]
1 | O=C(CN1C2CCC1CC2)Nc1cc2cc(-c3cnn4c3CN(CCF)CC4)ccc2cn1 [Compound 1000, 2-(7-Azabicyclo[2.2.1]heptan-7-yl)-N-(6-(5-(2-fluoroethyl)-4,5,6,7-tetrahydropyrazolo[1,5-a]pyrazin-3-yl)isoquinolin-3-yl)acetamide] | 1500 | 11.1 | 7300 | 8720 | 2960 | 4320 | 270 | – | – | – | – | –
2 | CO[C@H]1CC[C@@H](C(=O)Nc2cc3cc(-c4nnc(C)s4)ccc3cn2)CC1 [Compound 1001, cis-4-Methoxy-N-(6-(5-methyl-1,3,4-thiadiazol-2-yl)isoquinolin-3-yl) cyclohexane-1-carboxamide] | – | 7.3 | 677 | > 10000 | 65 | 593 | 9 | 3300 | – | – | – | –
3 | CC(C)CN1CCC[C@@H](C(=O)Nc2cc3cc(-c4cnn5c4CN(CCF)CC5)ccc3cn2)C1 [Compound 1002, (R)—N-(6-(5-(2-Fluoroethyl)-4,5,6,7-tetrahydropyrazolo[1,5-a]pyrazin-3-yl)isoquinolin-3-yl)-1-isobutylpiperidine-3-carboxamide] | – | 28.5 | > 10000 | > 10000 | > 10000 | 1920 | 425 | 1900 | 37.6 | 5.9 | 27.5 | –
4 | Cn1cc(-c2ccc3cnc(NC(=O)C4CCN(Cc5ncccn5)CC4)cc3c2)cn1 [Compound 1003, N-(6-(1-Methyl-1H-pyrazol-4-yl)isoquinolin-3-yl)-1-(pyrimidin-2-ylmethyl)piperidine-4-carboxamide] | – | 2.1 | 804 | 1150 | 49 | 1320 | 43 | 732 | – | – | – | –
5 | Cn1cc(-c2ccc3cnc(NC(=O)C4CCN(Cc5cnccn5)CC4)cc3c2)cn1 [Compound 1004, N-(6-(1-Methyl-1H-pyrazol-4-yl)isoquinolin-3-yl)-1-(pyrazin-2-ylmethyl)piperidine-4-carboxamide] | – | 2 | 678 | 1180 | 5040 | 618 | 37 | 667 | – | – | – | –
6 | Cc1nc(CN2CCC(C(=O)Nc3cc4cc(-c5cnn(C)c5)ccc4cn3)CC2)no1 [Compound 1005, 1-((5-Methyl-1,2,4-oxadiazol-3-yl)methyl)-N-(6-(1-methyl-1H-pyrazol-4-yl)isoquinolin-3-yl)piperidine-4-carboxamide] | – | 1.5 | 1130 | 2890 | 72 | 1400 | 32 | 898 | – | – | – | –
7 | CC(C)OCC(=O)Nc1cc2cc(-c3cncn3C)ccc2cn1 [Compound 1008, 2-Isopropoxy-N-(6-(1-methyl-1H-imidazol-5-yl)isoquinolin-3-yl)acetamide] | – | 7.5 | > 10000 | 7590 | 318 | 3350 | 91 | 643 | 37.2 | – | – | –
8 | CC(C)OCCC(=O)Nc1cc2cc(-c3cncn3C)ccc2cn1 [Compound 1009, 3-Isopropoxy-N-(6-(1-methyl-1H-imidazol-5-yl)isoquinolin-3-yl) propanamide] | – | 6.2 | 2350 | 1840 | > 10000 | 1110 | 15 | 68 | – | – | 22.4 | –
9 | Cn1cc(-c2ccc3cnc(NC(=O)C4CCN(CC(=O)OC(C)(C)C)CC4)cc3c2)cn1 [Compound 1010, tert-Butyl 2-(4-((6-(1-methyl-1H-pyrazol-4-yl)isoquinolin-3-yl)carbamoyl)piperidin-1-yl)acetate] | – | 2.6 | 3960 | 1170 | 103 | 2020 | 53 | 622 | – | – | – | –
10 | Cn1cc(-c2ccc3cnc(NC(=O)C4CCN(CC(=O)O)CC4)cc3c2)cn1 [Compound 1011, 2-(4-((6-(1-Methyl-1H-pyrazol-4-yl)isoquinolin-3-yl)carbamoyl)piperidin-1-yl)acetic acid] | – | 2.6 | > 10000 | > 10000 | > 10000 | > 10000 | 30 | > 10000 | 25 | 15.3 | 15.9 | 25
11 | CN1CCCN(CC(=O)Nc2cc3cc(-c4cnn(C)c4)ccc3cn2)CC1 [Compound 1012, 2-(4-Methyl-1,4-diazepan-1-yl)-N-(6-(1-methyl-1H-pyrazol-4-yl)isoquinolin-3-yl)acetamide] | – | 13 | 3200 | 3120 | > 10000 | 2720 | 155 | 555 | – | – | 10.2 | –
12 | Cn1cc(-c2cc3cc(NC(=O)C4CCNCC4)ncc3cc2Cl)cn1 [Compound 1013, N-(7-Chloro-6-(1-methyl-1H-pyrazol-4-yl)isoquinolin-3-yl)piperidine-4-carboxamide] | – | 17.1 | 5500 | 6820 | 2440 | > 10000 | 1430 | 4200 | – | – | – | 42.9
13 | [2H]C([2H])([2H])n1cc(-c2ccc3cnc(NC(=O)CN4CCN(C)CC4)cc3c2)cn1 [Compound 1014, N-(6-(1-(Methyl-d3)-1H-pyrazol-4-yl)isoquinolin-3-yl)-2-(4-methylpiperazin-1-yl)acetamide] | – | 9.4 | 5420 | 3200 | 695 | 2360 | 96 | 767 | – | – | – | –
14 | [2H]C([2H])([2H])n1cc(-c2cc3cc(NC(=O)CN4CCCCC4)ncc3cc2F)cn1 [Compound 1015, N-(7-Fluoro-6-(1-(methyl-d3)-1H-pyrazol-4-yl)isoquinolin-3-yl)-2-(piperidin-1-yl)acetamide] | – | 5.8 | 6420 | 3120 | > 10000 | 3730 | 101 | 523 | – | – | 9.7 | –
15 | [2H]C([2H])([2H])n1cc(-c2cc(F)c3cnc(NC(=O)CN4CCCCC4)cc3c2)cn1 [Compound 1016, N-(8-Fluoro-6-(1-(methyl-d3)-1H-pyrazol-4-yl)isoquinolin-3-yl)-2-(piperidin-1-yl)acetamide] | – | 29.1 | 6140 | > 10000 | 2130 | 4060 | 87 | 631 | – | 5.4 | – | –
16 | Cc1ncc(-c2ccc3cnc(NC(=O)[C@H]4CC[C@H](CN5CC(F)C5)CC4)cc3c2)o1 [Compound 1018, trans-4-((3-Fluoroazetidin-1-yl)methyl)-N-(6-(2-methyloxazol-5-yl)isoquinolin-3-yl)cyclohexane-1-carboxamide] | – | 2.5 | 498 | 441 | 88 | 608 | 54 | 280 | – | – | – | –
17 | Cc1ncc(-c2ccc3cnc(NC(=O)CN4CCN(C)CC4)cc3c2)o1 [Compound 1019, N-(6-(2-Methyloxazol-5-yl)isoquinolin-3-yl)-2-(4-methylpiperazin-1-yl) acetamide] | – | 28.9 | 9380 | 8970 | 6530 | 3800 | 158 | 1500 | – | – | – | –
18 | CC(C)CN1CCC(F)(C(=O)Nc2cc3cc(-c4cnc5n4CCNC5)ccc3cn2)CC1 [Compound 1021, 4-Fluoro-1-isobutyl-N-(6-(5,6,7,8-tetrahydroimidazo[1,2-a]pyrazin-3-yl)isoquinolin-3-yl)piperidine-4-carboxamide] | – | 42.2 | > 10000 | > 10000 | 4490 | > 10000 | 1580 | 5700 | 11.6 | 5.1 | – | 16.5
19 | O=C(Nc1cc2cc(-c3cnn4c3CN(CCF)CC4)ccc2cn1)C1CCNCC1 [Compound 1022, N-(6-(5-(2-Fluoroethyl)-4,5,6,7-tetrahydropyrazolo[1,5-a]pyrazin-3-yl)isoquinolin-3-yl)piperidine-4-carboxamide] | – | 4.2 | 3340 | 3290 | 222 | 1370 | 124 | 9600 | – | – | – | –
